Reference: patent publication US8129389B2, “Substituted oxindole derivatives, medicaments containing the latter and use thereof” (Abbott GmbH & Co. KG, priority 2005, dated 2012)
pKi: −log10 of the molar value. Like-named read-outs stand apart in the source and are kept apart here.

Molecular target: T1, human V1b receptors (Homo sapiens, UniProt P47901)
T1 construct: expressed in transfected cells
T1 sequence (P47901 1-424): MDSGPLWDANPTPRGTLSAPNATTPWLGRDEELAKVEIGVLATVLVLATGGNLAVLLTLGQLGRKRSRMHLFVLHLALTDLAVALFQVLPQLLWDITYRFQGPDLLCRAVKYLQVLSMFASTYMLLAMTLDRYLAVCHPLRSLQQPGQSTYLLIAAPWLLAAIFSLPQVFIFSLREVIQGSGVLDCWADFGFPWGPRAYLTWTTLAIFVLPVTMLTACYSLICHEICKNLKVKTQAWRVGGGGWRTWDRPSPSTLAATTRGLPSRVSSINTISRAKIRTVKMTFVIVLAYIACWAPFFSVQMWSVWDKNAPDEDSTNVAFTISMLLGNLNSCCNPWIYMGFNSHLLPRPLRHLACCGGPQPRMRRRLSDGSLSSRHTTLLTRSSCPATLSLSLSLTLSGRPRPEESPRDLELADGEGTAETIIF
Experiment: Vasopressin V1b receptor binding assay
Experimental: Vasopressin V1b Receptor Binding Assay:
These DMSO solutions were diluted 1:10 with assay buffer. The substance concentration was further diluted 1:10 in the assay mixture.
The nonspecific binding was determined with 10^−6 M AVP. Determinations in triplicate were carried out.
The affinities for the human vasopressin V1b receptor were measured, and affinity constants determined, in the above assay for the inventive examples.
The affinities of the compounds (I) of the invention for the human vasopressin V1b receptor were measured in accordance with the above assays, and the affinity constants (Ki) were determined. Table 1 below details the V1b receptor affinity of selected compounds (+++ means <10 nM and ++ means 10-100 nM).

[1] = Table 1, human vasopressin V1b receptor affinity, read-out: V1b Ki
[2] = membranes from CHO-K1 cells, 3H-AVP displacement, read-out: measured Ki values, affinities for the vasopressin V1b receptor

Structure (SMILES) | pKi [1] | pKi [2]
CCOc1ccccc1C1(OC(=O)N2CCN(c3ccncc3)CC2)C(=O)N(S(=O)(=O)c2ccccc2OC)c2ccc(C#N)cc21 (centres unmarked) [Example 2, 5-Cyano-1-(2-methoxybenzenesulfonyl)-3-(2-ethoxyphenyl)-2-oxo-2,3-dihydro-1H-indol-3-yl 4-(pyridin-4-yl)piperazine-1-carboxylate] | 7.00 to 8.00 | > 7.00
CCOc1ccccc1C1(OC(=O)N2CCN(c3ccncc3)CC2)C(=O)N(S(=O)(=O)c2ccc(OC)cc2OC)c2ccc(C#N)cc21 (centres unmarked) [Example 3, 5-Cyano-1-(2,4-dimethoxybenzenesulfonyl)-3-(2-ethoxyphenyl)-2-oxo-2,3-dihydro-1H-indol-3-yl 4-(pyridin-4-yl)piperazine-1-carboxylate] | > 8.00 | > 7.00
CCOc1ccccc1C1(OC(=O)N2CCN(c3nccs3)CC2)C(=O)N(S(=O)(=O)c2ccccc2OC)c2ccc(C#N)cc21 (centres unmarked) [Example 4, 5-Cyano-1-(2-methoxybenzenesulfonyl)-3-(2-ethoxyphenyl)-2-oxo-2,3-dihydro-1H-indol-3-yl 4-(thiazol-2-yl)piperazine-1-carboxylate] | > 8.00 | > 7.00
CCOc1ccccc1C1(OC(=O)N2CCN(c3ccncc3)CC2)C(=O)N(S(=O)(=O)c2ccc(F)cc2F)c2ccc(C#N)cc21 (centres unmarked) [Example 7, 5-Cyano-1-(2,4-difluorobenzenesulfonyl)-3-(2-ethoxyphenyl)-2-oxo-2,3-dihydro-1H-indol-3-yl 4-(pyridin-4-yl)piperazine-1-carboxylate] | 7.00 to 8.00 | > 7.00
CCOc1ccccc1C1(OC(=O)N2CCN(c3ccncc3)CC2)C(=O)N(S(=O)(=O)c2ccccc2F)c2ccc(C#N)cc21 (centres unmarked) [Example 8, 5-Cyano-1-(2-fluorobenzenesulfonyl)-3-(2-ethoxyphenyl)-2-oxo-2,3-dihydro-1H-indol-3-yl 4-(pyridin-4-yl)piperazine-1-carboxylate] | 7.00 to 8.00 | > 7.00
CCOc1ccccc1C1(OC(=O)N2CCN(c3ccncc3)CC2)C(=O)N(S(=O)(=O)c2ccccc2)c2ccc(C#N)cc21 (centres unmarked) [Example 9, 5-Cyano-1-benzenesulfonyl-3-(2-ethoxyphenyl)-2-oxo-2,3-dihydro-1H-indol-3-yl 4-(pyridin-4-yl)-piperazine-1-carboxylate] | 7.00 to 8.00 | > 7.00
CCOc1ccccc1C1(NC(=O)N2CCN(c3ccncc3)CC2)C(=O)N(S(=O)(=O)c2ccccc2OC)c2ccc(C#N)cc21 (centres unmarked) [Example 10, 4-(Pyridin-4-yl)piperazine-1-[1-(2-methoxybenzenesulfonyl)-5-cyano-2-oxo-3-(2-ethoxyphenyl)-2,3-dihydro-1H-indol-3-yl]carboxamide] | > 8.00 | > 7.00
CCOc1ccccc1C1(NC(=O)N2CCN(c3ccncc3)CC2)C(=O)N(S(=O)(=O)c2ccccc2)c2ccc(C#N)cc21 (centres unmarked) [Example 11, 4-(Pyridin-4-yl)piperazine-1-[1-benzenesulfonyl-5-cyano-2-oxo-3-(2-ethoxyphenyl)-2,3-dihydro-1H-indol-3-yl]carboxamide] | 7.00 to 8.00 | > 7.00
CCOc1ccccc1C1(NC(=O)N2CCN(c3ccncc3)CC2)C(=O)N(S(=O)(=O)c2ccccc2F)c2ccc(C#N)cc21 (centres unmarked) [Example 12, 4-(Pyridin-4-yl)piperazine-1-[1-(2-fluorobenzenesulfonyl)-5-cyano-2-oxo-3-(2-ethoxyphenyl)-2,3-dihydro-1H-indol-3-yl]carboxamide] | > 8.00 | > 7.00
CCOc1ccccc1C1(NC(=O)N2CCN(c3ccncc3)CC2)C(=O)N(S(=O)(=O)c2ccc(F)cc2F)c2ccc(C#N)cc21 (centres unmarked) [Example 13, 4-(Pyridin-4-yl)piperazine-1-[1-(2,4-difluorobenzenesulfonyl)-5-cyano-2-oxo-3-(2-ethoxyphenyl)-2,3-dihydro-1H-indol-3-yl]carboxamide] | 7.00 to 8.00 | > 7.00
